As usually defined, the IC50 is the concentration at which inhibition is half-maximal. As usually defined, the viability is a read-out of living cells in per cent, often relative to untreated cells.

Consider 13 compounds from patent US20250353825A1, “CANNABICYCLOL DERIVATIVES AND PREPARATION METHODS THEREOF” (priority 2023, published 2025).

In brackets after ≈: the same amount, converted by molar mass. Like-named read-outs stand apart in the source and are kept apart here.

Assay type in all cases: cell-based
One series has as its system GSC-3 (3#-GSC). Kind of series: MTS cell viability assay, glioblastoma stem cells GSC-3 (3#-GSC). To be noted: for IC50: GSC-3, Table 8, cancer stem cells, preferred compounds, read-out: IC50 3#-GSC; for selective anti-glioma stem cell viability: judged in words from preliminary viability screening against 3#-GSC, 293T and U251. The procedure: (§1) Primary viability screening: (1) the synthesized compounds 3a to 13d were respectively dissolved in DMSO to prepare a 40 μg/mL cannabicyclol and cannabicyclol derivative solutions.
(§2) (2) A control group: a 200 μL DMSO solvent.
(§3) (3) The solutions of compounds 3a to 13d were diluted in a twofold gradient to obtain cannabicyclol and cannabicyclol derivative solutions at concentrations of 40 μg/mL, 20 μg/mL, 10 μg/mL, 5 μg/mL, 2.5 μg/mL, 1.25 μg/mL, and 0.625 μg/mL, and 0.3125 μg/mL, respectively.
(§4) (4) Three glioblastoma stem cells (GSC-3, GSC-12, and GSC-18), three pancreatic cancer cell-derived stem cells (PANC-1-CSC, BXPC-3-CSC, and ASPC1-CSC), three liver cancer cell-derived stem cells (HepG2-CSC, MHCC97H-CSC, and SMMC7721-CSC), HEK-293T cells, 16 tumor cells (U251, U87, T98G, PANC1, BXPC3, ASPC1, HepG2, MHCC97H, SMMC7721, PC3, SKOV3, MDA-MB231, A549, HCT116, HEC-1B, MKN28), and differentiated glioblastoma stem cells (GSC-3diff and GSC-12diff) derived from GSC-3 and GSC-12 (all of the cells were provided by the Laboratory of Tumor Animal Model Preparation and Application Research, West China Hospital, Sichuan University) were inoculated into a 96-well plate at a concentration of 2×10^4 cells/well, and 100 μL of culture medium was then added to each well;
(§5) (5) 2) HEK-293T, GSC-3diff, GSC-12diff, and the 16 tumor cells were added with DMEM, 10% FBS, and 1% double antibody culture medium. Cancer stem cells (CSCs) were added with serum-free stem cell medium consisting of DMEM/F12, EGF (20 ng/mL), bFGF (20 ng/mL), B27 (1×), and 1% double antibody culture medium.
(§6) (6) Inoculated cells were put into a cell culture incubator for 24 hours, and after the cells were well adhered to the wall, the culture medium in the 96-well plate was discarded.
(§7) (7) 200 μL cannabicyclol and cannabicyclol derivatives solutions at different concentrations were added to the cultured cells.
(§8) (8) The experiment was set up with 3 replicates.
(§9) (9) The 96-well plate was placed in a cell culture incubator, and incubation was continued at 37° C. and 5% CO2 for 72 hours. Then, 100 μL of cannabicyclol and cannabicyclol derivative solution per well was discarded (100 μL of DMSO solvent was discarded for the control group), and 20 μL of LMTS (CellTiter AQueous Non-Radioactive Cell Proliferation Assay, #G3581) was mixed and continued to be placed in the cell incubator for 2 hours of incubation.
(§10) (10) The absorbance value at 490 nm was measured on an enzyme labeling apparatus, and the IC50 value was calculated.
A general note: Tetrazolium assays rely on reduction of a dye to a coloured formazan, in cell work by metabolically active cells.

The subject of another series is U251. Nature of the series: MTS cell viability assay, U251. To be noted: for IC50: Homo sapiens, U-251, Table 8, tumor cells, preferred compounds, read-out: IC50 U251. How it is done: as §1, §2, §3, §4, §5, §6, §7, §8, §9, §10
The nature of series [1]: MTS cell viability assay, HEK-293T (293T) normal cells. To be noted: human. The procedure:
as §1, §2, §3, §4, §5, §6, §7, §8, §9, §10

In the next series the test system is HEK-293T. The series is described as above. The conditions noted are these: Homo sapiens, HEK-293T; Table 8, normal cells, preferred compounds; read-out: IC50 293T. How it is done:
as §1, §2, §3, §4, §5, §6, §7, §8, §9, §10

[2] abbreviates: primary viability screening, 72 hours, MTS, test concentration not stated.
The mark [3] stands for this setting: HEK-293T (293T) normal cells, primary viability screening, 72 hours, MTS, test concentration not stated, read-out: Cell viability in 293T (%).

Regarding `CC12CCC3C1C(c1c(O)cc(-c4ccsc4)cc1O2)C3(C)C` (stereo not drawn) [Compound 3t], the “Cell viability in 3#-GSC (%)” value with GSC-3 (3#-GSC) (72 h) worked out at 50%. The IC50 with GSC-3 (3#-GSC) came to 3 mg/L (≈ 9.17 µM); in the series with U251, 14 mg/L (≈ 42.8 µM); with HEK-293T, 16.4 mg/L (≈ 50.2 µM). Further, the “selective anti-glioma stem cell viability” value in the series with GSC-3 (3#-GSC) was “weak selective anti-glioma stem cell viability”. In the series with U251 (human, 72 h), the “Cell viability in U251 (%)” value is listed as 98%. Moreover, in series [1], the viability at 72 h was at least 100%.

For `CCCCCc1cc(OC(=O)C(C)CC)c2c(c1)OC1(C)CCC3C1C2C3(C)C` (stereo not drawn) [Compound 9a], the IC50 was 4.32 mg/L (≈ 10.8 µM) with GSC-3 (3#-GSC), over 40 mg/L in the series with U251 and over 40 mg/L in the series on HEK-293T. For the same compound, the “Cell viability in 3#-GSC (%)” value in the series with GSC-3 (3#-GSC) (setting [2]) came out at 52%. Also, the “Cell viability in U251 (%)” value in the series with U251 (setting [2]) is given as at least 100%. Further, in series [1] (setting [3]), the viability at 72 h is at least 100%.

As for `CCCCCc1cc(OC(=O)CC)c2c(c1)OC1(C)CCC3C1C2C3(C)C` (stereo not drawn) [Compound 9c], the half-inhibitory concentration (IC50) is 9.32 mg/L (≈ 25.2 µM) with GSC-3 (3#-GSC), 24.7 mg/L (≈ 66.7 µM) in the series with U251 and over 40 mg/L in the series with HEK-293T. Moreover, the “selective anti-glioma stem cell viability” value in the series with GSC-3 (3#-GSC) is “both the viability and selectivity were maintained”. Further, the “Cell viability in 3#-GSC (%)” value in the series with GSC-3 (3#-GSC) (setting [2]) is on record as 28%. Also, the “Cell viability in U251 (%)” value in the series with U251 (setting [2]) is on record as at least 100%. The viability at 72 h in series [1] (setting [3]) is at least 100%.

As for `CCCCCc1cc(OC(=O)/C=C/c2ccc(OC)cc2)c2c(c1)OC1(C)CCC3C1C2C3(C)C` (stereo not drawn) [Compound 9h], the “Cell viability in 3#-GSC (%)” value in the series on GSC-3 (3#-GSC) (setting [2]) amounted to 90%. For the same compound, the “Cell viability in U251 (%)” value in the series on U251 (setting [2]) was at least 100%. In addition, the viability at 72 h in series [1] (setting [3]) is at least 100%.

For `CCCCCc1cc(OC(=O)c2ccncc2)c2c(c1)OC1(C)CCC3C1C2C3(C)C` (stereo not drawn) [Compound 9i], the “Cell viability in 3#-GSC (%)” value in the series with GSC-3 (3#-GSC) (setting [2]) is 91%. For the same compound, the “Cell viability in U251 (%)” value in the series with U251 (setting [2]) came to 88%. In addition, the viability at 72 h in series [1] (setting [3]) worked out at 91%.

Regarding `CCCCCc1cc(OC(=O)c2ccco2)c2c(c1)OC1(C)CCC3C1C2C3(C)C` (stereo not drawn) [Compound 9j], the “Cell viability in 3#-GSC (%)” value with GSC-3 (3#-GSC) (setting [2]) is at least 100%. For the same compound, the “Cell viability in U251 (%)” value with U251 (setting [2]) is given as at least 100%. Further, the viability at 72 h in series [1] (setting [3]) is at least 100%.

Take `CCCCCc1cc(OC(=O)CN2CCOCC2)c2c(c1)OC1(C)CCC3C1C2C3(C)C` (stereo not drawn) [Compound 9k]: the half-maximal inhibitory concentration (IC50) in the series with GSC-3 (3#-GSC) was 5.37 mg/L (≈ 12.2 µM); in the series with U251, over 40 mg/L; in the series on HEK-293T, over 40 mg/L. Besides, in the series with GSC-3 (3#-GSC) (setting [2]), the “Cell viability in 3#-GSC (%)” value is listed as 43%. Moreover, the “Cell viability in U251 (%)” value in the series with U251 (setting [2]) is at least 100%. Further, the viability at 72 h in series [1] (setting [3]) was at least 100%.

For the compound `CCCCCc1cc(OC(=O)CCN2CCOCC2)c2c(c1)OC1(C)CCC3C1C2C3(C)C` (stereo not drawn) [Compound 9l], the IC50 in the series on GSC-3 (3#-GSC) is 2.9 mg/L (≈ 6.37 µM); in the series on U251, 24.7 mg/L (≈ 54.3 µM); in the series with HEK-293T it was over 40 mg/L. Also, in the series on GSC-3 (3#-GSC) (setting [2]), the “Cell viability in 3#-GSC (%)” value is 32%. Further, the “Cell viability in U251 (%)” value with U251 (setting [2]) is given as 90%. For the same compound, in series [1] (setting [3]), the viability at 72 h is 93%.

`CCCCCc1cc(OC(=O)CN(C)C)c2c(c1)OC1(C)CCC3C1C2C3(C)C` (stereo not drawn) [Compound 9m]: the IC50 in the series with GSC-3 (3#-GSC) was 5.44 mg/L (≈ 13.6 µM); in the series on U251, over 40 mg/L; in the series with HEK-293T, 22.9 mg/L (≈ 57.2 µM). The “Cell viability in 3#-GSC (%)” value in the series with GSC-3 (3#-GSC) (setting [2]) is reported as 42%. Besides, the “Cell viability in U251 (%)” value in the series on U251 (setting [2]) is listed as at least 100%. Also, the viability at 72 h in series [1] (setting [3]) was at least 100%.

Take `CCCCCc1cc(OC(=O)CCN(C)C)c2c(c1)OC1(C)CCC3C1C2C3(C)C` (stereo not drawn) [Compound 9n]: the figures for the IC50 in the series on GSC-3 (3#-GSC), in the series on U251 and with HEK-293T were 7.79 mg/L (≈ 18.8 µM), 33.4 mg/L (≈ 80.9 µM) and 35.2 mg/L (≈ 85 µM), respectively. Moreover, in the series with GSC-3 (3#-GSC) (setting [2]), the “Cell viability in 3#-GSC (%)” value was 32%. In the series with U251 (setting [2]), the “Cell viability in U251 (%)” value amounted to 89%. Also, the viability at 72 h in series [1] (setting [3]) is at least 100%.

Take `CCCCCc1cc(OC(=O)CCCC[P+](c2ccccc2)(c2ccccc2)c2ccccc2)c2c(c1)OC1(C)CCC3C1C2C3(C)C` (stereo not drawn) [Compound 9s]: the “Cell viability in 3#-GSC (%)” value in the series on GSC-3 (3#-GSC) (72 h) is on record as 40%. The “Cell viability in U251 (%)” value in the series on U251 (human, 72 h) is given as 17%. In addition, the viability at 72 h in series [1] turned out to be 21%.

For the compound `CCCCCc1cc(OC(=O)CCCCOc2cc(=O)oc3ccccc23)c2c(c1)OC1(C)CCC3C1C2C3(C)C` (stereo not drawn) [Compound 9t], the “Cell viability in 3#-GSC (%)” value in the series with GSC-3 (3#-GSC) (72 h) was at least 100%. The “Cell viability in U251 (%)” value in the series on U251 (human, 72 h) was at least 100%. In series [1], this compound displayed a viability at 72 h of at least 100%.

Regarding `CCCCCc1cc2c(c(-c3ccccc3)c1)C1C3C(CCC3(C)O2)C1(C)C` (stereo not drawn) [Compound 13b], the “Cell viability in 3#-GSC (%)” value with GSC-3 (3#-GSC) (72 h) is on record as 50%. Further, the values for the 50% inhibitory concentration (IC50) in the series with GSC-3 (3#-GSC), in the series on U251 and with HEK-293T were 4.73 mg/L (≈ 12.6 µM), over 40 mg/L and over 40 mg/L, respectively. The “selective anti-glioma stem cell viability” value in the series with GSC-3 (3#-GSC) was “both the viability and selectivity were significantly reduced”. The “Cell viability in U251 (%)” value in the series on U251 (human, 72 h) is reported as at least 100%. In series [1], this compound gave a viability at 72 h of 75%.
